The values that follow come from ChEMBL document CHEMBL5352461, “Discovery of the novel Benzo[b]thiophene 1,1-dioxide derivatives as a potent STAT3 inhibitor against idiopathic pulmonary fibrosis” (Eur J Med Chem, 2023).

Active and inactive are the calls of the source. The calls are words filed in the database; no cut-off is given here.

The species entered for the first assay is Mus musculus. The assay is described as follows: Antifibrotic activity against bleomycin-induced C57BL/6 mouse lung fibrosis model assessed as reduction in CD11c+MHC II+ in dendritic cells in lung incubated for 30 mins by flow cytometry analysis ( Rvb = 23.67 %). The conditions noted are these: 0.5 h. Also on record: scale not given: the % may be the effect or the level left. Type of assay: functional. For orientation: Flow cytometry measures light scatter and fluorescence of single cells or particles in a stream.
`COC(=O)c1ccc2c(c1)NC(=O)/C2=C(\Nc1ccc(N(C)C(=O)CN2CCN(C)CC2)cc1)c1ccccc1` [NINTEDANIB]: the Activity is 20.61%.

For a further assay, the system named is NIH3T3. The assay is described as follows: Antiproliferative activity against mouse NIH3T3 cells assessed as cell growth inhibition incubated for 24 to 72 hrs by CCK-8 assay.
Details: not given
Type of assay: functional, cell-based. (Formazan colour is commonly taken as a measure of viable cells.)
The term IC50 denotes the concentration needed to halve the response being measured. Take `O=C(C1=Cc2ccccc2S1(=O)=O)N1CCN(C(=O)c2scnc2Br)CC1`: the IC50 came out at 810 nM. Same read-out and setting: the value for `O=C(C1=Cc2ccccc2S1(=O)=O)N1CCN(S(=O)(=O)c2cccs2)CC1` was 3870 nM. On to `O=C(C1=Cc2ccccc2S1(=O)=O)N1CCN(C(=O)c2ccc(F)cn2)CC1`, for which the IC50 was 2090 nM.

In the case of `O=C(C1=Cc2ccccc2S1(=O)=O)N1CCN(S(=O)(=O)c2cc(F)cc(F)c2)CC1`, the IC50 worked out at 1450 nM. For the compound `COC(=O)c1ccc(CN2CCN(C(=O)C3=Cc4ccccc4S3(=O)=O)CC2)cc1`, the IC50 was 630 nM.

For the compound `CC(C)(C)OC(=O)n1cc(CN2CCN(C(=O)C3=Cc4ccccc4S3(=O)=O)CC2)c2ccccc21`, the IC50 was determined as 5120 nM. For the compound `O=C(NC1CCN(C(=O)C2=Cc3ccccc3S2(=O)=O)CC1)c1cccc(Cl)c1`, the IC50 was 6760 nM. `O=C(C1=Cc2ccccc2S1(=O)=O)N1CCN(Cc2ccccc2F)CC1`: the IC50 was 1000 nM. `O=C(C1=Cc2ccccc2S1(=O)=O)N1CCN(Cc2cccc(C(F)(F)F)c2)CC1`: the IC50 was 1320 nM. Consider `O=C(C1=Cc2ccccc2S1(=O)=O)N1CCN(C(=O)c2cccnc2)CC1`, for which the IC50 worked out at 8450 nM. Same read-out and setting: the value for `Cc1nc(C)c(C(=O)NC2CCN(C(=O)C3=Cc4ccccc4S3(=O)=O)CC2)nc1C` was 2130 nM; that for `Cc1noc(C)c1S(=O)(=O)N1CCN(C(=O)C2=Cc3ccccc3S2(=O)=O)CC1` was 1470 nM. Regarding `O=C(Cc1cccc2c1CCO2)NC1CCN(C(=O)C2=Cc3ccccc3S2(=O)=O)CC1`, the IC50 came to 3980 nM.

As to `O=C(C1=Cc2ccccc2S1(=O)=O)N1CCN(C(=O)c2cc(F)c(F)cc2F)CC1`, the IC50 amounted to 870 nM. Regarding `O=C(C1=Cc2ccccc2S1(=O)=O)N1CCN(C(=O)c2cc3ccccc3o2)CC1`, the IC50 worked out at 1220 nM. In the case of `O=C(C1=Cc2ccccc2S1(=O)=O)N1CCN(S(=O)(=O)c2ccc3ccccc3c2)CC1`, the IC50 is over 10000 nM.

Regarding `O=C(C1=Cc2ccccc2S1(=O)=O)N1CCN(Cc2cccc(F)c2)CC1`, the IC50 was found to be 950 nM. On to `COc1cc(CN2CCN(C(=O)C3=Cc4ccccc4S3(=O)=O)CC2)cc(OC)c1`, for which the 50% inhibitory concentration (IC50) stood at 1110 nM. `O=C(C1=Cc2ccccc2S1(=O)=O)N1CCN(Cc2ccc3ccccc3c2)CC1`: the IC50 was 6780 nM. On to `O=C(NC1CCN(C(=O)C2=Cc3ccccc3S2(=O)=O)CC1)c1ccc(Cl)cc1`, for which the IC50 stood at 6260 nM.

With `CN(C)c1ccc(CC(=O)NC2CCN(C(=O)C3=Cc4ccccc4S3(=O)=O)CC2)cc1`, the half-maximal inhibitory concentration (IC50) is over 10000 nM. `O=C(Cc1cccc(C2CC2)c1)N1CCN(C(=O)C2=Cc3ccccc3S2(=O)=O)CC1`: the IC50 came to 1750 nM. Still for that read-out and setting: with `O=C(Cc1ccccc1[N+](=O)[O-])NC1CCN(C(=O)C2=Cc3ccccc3S2(=O)=O)CC1` the figure was over 10000 nM. Same read-out and setting: with `O=C(C1=Cc2ccccc2S1(=O)=O)N1CCN(Cc2ccc(S(=O)(=O)C(F)(F)F)cc2)CC1` the figure was 1790 nM; with `O=C(C1=Cc2ccccc2S1(=O)=O)N1CCN(S(=O)(=O)c2ccc3c(c2)CCO3)CC1`, 8890 nM; with `O=C(C1=Cc2ccccc2S1(=O)=O)N1CCN(Cc2c(F)c(F)c(F)c(F)c2F)CC1`, 1290 nM. Consider `O=C(C1=Cc2ccccc2S1(=O)=O)N1CCN(C(=O)c2cccnc2N2CCOCC2)CC1`, for which the IC50 amounted to 3420 nM.

`O=C(CC1CCCC1)NC1CCN(C(=O)C2=Cc3ccccc3S2(=O)=O)CC1`: the IC50 was over 10000 nM. For `O=C(CC1CCCCC1)NC1CCN(C(=O)C2=Cc3ccccc3S2(=O)=O)CC1`, the IC50 is over 10000 nM. Turning to `COS(=O)(=O)c1ccc(CN2CCN(C(=O)C3=Cc4ccccc4S3(=O)=O)CC2)cc1`, the IC50 turned out to be 930 nM. On to `O=C(C1=Cc2ccccc2S1(=O)=O)N1CCN(S(=O)(=O)C2CCCCC2)CC1`, for which the IC50 worked out at 8920 nM. As to `O=C(Cc1cccc([N+](=O)[O-])c1)NC1CCN(C(=O)C2=Cc3ccccc3S2(=O)=O)CC1`, the IC50 is over 10000 nM. In the case of `O=C(C1=Cc2ccccc2S1(=O)=O)N1CCN(Cc2ccc(Cl)cc2)CC1`, the IC50 is 2010 nM.

For the compound `O=[N+]([O-])c1ccc2c(c1)S(=O)(=O)C=C2`, the IC50 was found to be 1180 nM. Turning to `CC(C)(C)OC(=O)N1CCOC(C(=O)N2CCN(C(=O)C3=Cc4ccccc4S3(=O)=O)CC2)C1` (centres undefined), the IC50 was 5230 nM. Still for that read-out and setting: the value for `O=C(C1=Cc2ccccc2S1(=O)=O)N1CCN(C(=O)c2ccccn2)CC1` was 6020 nM; that for `COC(=O)c1sccc1S(=O)(=O)N1CCN(C(=O)C2=Cc3ccccc3S2(=O)=O)CC1` was 4480 nM. `Cc1cccc(CN2CCN(C(=O)C3=Cc4ccccc4S3(=O)=O)CC2)c1`: the IC50 is 2550 nM. The same measure, in the same setting: with `COc1ccc(CN2CCN(C(=O)C3=Cc4ccccc4S3(=O)=O)CC2)cc1` the figure was 1780 nM; with `COC(=O)c1ccc(CN2CCN(C(=O)C3=Cc4ccccc4S3(=O)=O)CC2)cc1OC`, 1240 nM. For `Cc1ccc(CN2CCN(C(=O)C3=Cc4ccccc4S3(=O)=O)CC2)cc1`, the IC50 turned out to be 1660 nM. With `O=C(C1=Cc2ccccc2S1(=O)=O)N1CCN(Cc2ccc(-c3ccccc3)cc2)CC1`, the IC50 is 6470 nM. As to `O=C(CN1CCOCC1)NC1CCN(C(=O)C2=Cc3ccccc3S2(=O)=O)CC1`, the half-maximal inhibitory concentration (IC50) came out at 4850 nM.

With `O=C(C1=Cc2ccccc2S1(=O)=O)N1CCN(Cc2ccc(C(F)(F)F)cc2)CC1`, the IC50 was determined as 1460 nM. As for `O=C(C1=Cc2ccccc2S1(=O)=O)N1CCN(Cc2cc(F)c(F)c(F)c2F)CC1`, the concentration for half-maximal inhibition (IC50) came out at 1260 nM. In the case of `COC(=O)c1ccc2c(c1)NC(=O)/C2=C(\Nc1ccc(N(C)C(=O)CN2CCN(C)CC2)cc1)c1ccccc1` [NINTEDANIB], the concentration for half-maximal inhibition (IC50) turned out to be 2410 nM. Still for that read-out and setting: with `COC(=O)c1cccc(CN2CCN(C(=O)C3=Cc4ccccc4S3(=O)=O)CC2)c1` the figure was 1400 nM. Regarding `O=C(C1=Cc2ccccc2S1(=O)=O)N1CCN(Cc2ccc(C(F)(F)F)o2)CC1`, the IC50 is 1900 nM. The same measure, in the same setting: with `O=C(C1=Cc2ccccc2S1(=O)=O)N1CCN(C(=O)c2ccc(N3CCOCC3)nc2)CC1` the figure was 2490 nM.

The species entered for another assay is Mus musculus. The assay is described as follows: Antifibrotic activity against bleomycin-induced C57BL/6 mouse lung fibrosis model assessed as reduction in CD4-CD69+ T cell in lung incubated for 30 mins by flow cytometry analysis ( Rvb = 6.54%). Type of assay: functional. Also on record: scale not given: the % may be the effect or the level left. Conditions: 0.5 h.
As for `COC(=O)c1ccc2c(c1)NC(=O)/C2=C(\Nc1ccc(N(C)C(=O)CN2CCN(C)CC2)cc1)c1ccccc1` [NINTEDANIB], the Activity was 3.55%.

The species entered for the next assay is Mus musculus. The assay is described as follows: Antifibrotic activity against bleomycin-induced C57BL/6 mouse lung fibrosis model assessed as reduction in F4/80+CD11b+ macrophage in lung incubated for 30 mins by flow cytometry analysis ( Rvb = 17.96%). The conditions noted are these: 0.5 h. Also on record: scale not given: the % may be the effect or the level left. Type of assay: functional.
Turning to `COC(=O)c1ccc2c(c1)NC(=O)/C2=C(\Nc1ccc(N(C)C(=O)CN2CCN(C)CC2)cc1)c1ccccc1` [NINTEDANIB], the Activity amounted to 12.36%.

In another assay the test system is A549. The assay is described as follows: Inhibition of cell migration in TGF-beta1 induced human A549 cells measured for 24 hrs by contrast-phase microscopic analysis.
Details: not given
Type of assay: functional, cell-based.
For `O=[N+]([O-])c1ccc2c(c1)S(=O)(=O)C=C2`, the inhibition entry was “Active”.

For the next assay, the system named is A549. The assay is described as follows: Induction of morphological changes in TGF-beta1 induced human A549 cells assessed as appearance of spindle shape cells at 200 nM measured for 24 hrs by phase contrast microscopy analysis. Type of assay: functional, cell-based.
Details: not given
In the case of `O=[N+]([O-])c1ccc2c(c1)S(=O)(=O)C=C2`, the result was Active.
